Patent publication US20250288588A1, “SUBSTITUTED IMIDAZOPYRIDINES AND IMIDAZOPYRIMIDINES, AND USE OF SAME FOR TREATING, AMELIORATING, AND/OR PREVENTING RETINAL DEGENERATION” (Yale University, priority 2022, published 2025)

Legend:
Type in all cases: cell-based
Human RPE cells [1] = test: CellTox Green Cytotoxicity Assay; conditions: FIG. 10, 1 μM compound preincubated 24 hours
Protocol: Human RPE cells were preincubated with 1 μM of compound DH381-2 and DH421 for 24 hours. Cell toxicity was measured by CellTox Green Cytotoxicity Assay in human RPE cells after treatment with TBHP and compounds DH381-2 and DH421.

Human RPE cells [2] = test: TBHP oxidative stress-induced cell death, cell viability; conditions: FIG. 6, 0.6 μM compound preincubated 24 hours, then 300 μM TBHP 24 hours, p<0.0001
Protocol: (§1) Human RPE cells were preincubated with 0.6 μM of compound DH421 or DH381-2 for 24 hours and then exposed to 300 μM tert-butyl hydroperoxide (TBHP) to induce cell death for 24 hours. Protective effects on human RPE cells treated with DH421 and DH381-2. **** p<0.0001.

Human ARPE-19 cells [3] = test: Blue light damage, cell viability (RealTime-Glo MT); conditions: FIG. 4, 0.6 μM compound preincubated 24 hours, then blue light 156.7 LUX for 36 hours
Protocol: Human ARPE-19 cells were plated in 96-well plates for 24 hours in DMEM supplemented with FBS and antibiotics. The cells were preincubated with drug for 24 hours and then exposed to blue light (156.7 LUX for 36 hours). Cell viability was measured after 36 hours of blue light exposure using RealTime-Glo MT assays (Promega) with a BioTek FLx800 fluorescence reader (Bio Tek, Winooski, VT).
Human ARPE-19 cells (CRL-2302; American Type Culture Collection) were preincubated with 0.6 μM of compound DH421 or DH381-2 for 24 hours and then exposed to blue light (156.7 LUX for 36 hours). Protective effect of compound DH421 or DH381-2 on human ARPE-19 cells exposed to blue light (156.7 LUX for 36 hours). * p<0.05, *** p<0.01.

Human ARPE-19 cells [4] = test: Cell viability on nitrite-modified extracellular matrix (ECM); conditions: FIG. 5, 1 μM, 3 μM, and 10 μM compound, seeded onto nitrite-modified ECM for 24 hours
Protocol: Immortalized human RPE (ARPE-19) cells were obtained from the ATCC, cultured, and maintained in DMEM (Invitrogen-Gibco, Life Technologies) containing 10% FBS, 100 IU/mL penicillin, 100 μg/mL streptomycin, and 100 μg/mL gentamicin (Invitrogen-Gibco, Life Technologies). These cells were incubated in a humidified atmosphere of 5% CO2 and 95% air at 37° C. ARPE-19 cells were grown on 24-well Transwell® permeable supports (Corning, Inc.) in 12-well plates or flat bottom 24-well plates for 6-8 weeks to allow the ECM to form. ARPE-19 cells were then removed by the addition of 20 mM ammonium hydroxide buffer for 20 min, and the ECM was washed with phosphate buffered saline (PBS). PBS was removed from the RPE-ECM plates and dried. Subsequently, 100 mM sodium nitrite was added to the ECM and incubated at 37° C. for 7 days. Plates were then washed with PBS and incubated with PBS for 4 hours. Finally, plates were washed with PBS to completely remove the nitrite. Cells are preincubated with drug for 24 hours and then seeded on nitrite-modified ECM for 24 hours. Cell viability was measured using RealTime-Glo MT assays (Promega) with a BioTek FLx800 fluorescence reader (Bio Tek, Winooski, VT). […]

Human ARPE-19 cells [5] = test: TBHP oxidative stress-induced cell death, cell viability (RealTime-Glo MT); conditions: for cell viability after exposure to TBHP / protection from oxidative stress-induced cell death: p<0.0001; for protection from oxidative stress-induced cell death: FIG. 3, 0.6 μM compound preincubated 24 hours
Protocol: Immortalized human RPE cells (ARPE-19) obtained from the American Type Culture Collection (ATCC, Manassas, VA, USA) were cultured in Dulbecco's modified Eagle's medium (DMEM; Thermo Fisher Scientific, Waltham, MA) containing 10% fetal bovine serum (FBS), 100 IU/mL penicillin, 100 μg/mL streptomycin, 100 μg/mL gentamicin, and 2.5 μg/mL amphotericin B (Thermo Fisher Scientific).
Human ARPE-19 cells were plated in 96-well plates for 24 hours in DMEM supplemented with FBS and antibiotics. ARPE-19 cells were preincubated with either ciclopirox olamine (Sigma), compound 414 (Chemical Diversity, San Diego, CA), compound 434 (Chemical Diversity) or no compound for 24 hours and then exposed to varying concentrations of tert-butyl hydroperoxide (TBHP; Sigma-Aldrich, St. Louis, MO) the next day for 24 hours. Cell viability was measured the following day by RealTime-Glo™ MT cell viability assay (Promega, Madison, WI) using a BioTek FLx800™ fluorescence reader (BioTek, Winooski, VT).
Human ARPE-19 cells (CRL-2302; American Type Culture Collection) were preincubated with 0.9 μM of DH381-2 and DH421 for 24 hours and then exposed to 300 μM tert-butyl hydroperoxide (TBHP) to induce cell death for 24 hours.
Human ARPE-19 cells (CRL-2302; American Type Culture Collection) were preincubated with 0.9 μM of DH421 for 24 hours and then exposed to 250 μM tert-butyl hydroperoxide (TBHP) to induce cell death for 24 hours.
as §1, with “ARPE-19” for “RPE”, “(CRL-2302; American Type Culture Collection) with” for “were”

Human RPE cells [6] = test: Blue light damage, cell viability; conditions: FIG. 7, 0.6 μM compound preincubated 24 hours, then blue light 156.7 LUX for 36 hours
Protocol: Human RPE cells were preincubated with 0.6 μM of compound DH421 or DH381-2 for 24 hours and then exposed to blue light (156.7 LUX for 36 hours). Protective effect of compound DH421 or DH381-2 on human RPE cells exposed to blue light (156.7 LUX for 36 hours). * p<0.05, *** p<0.01.

Human RPE cells [7] = test: Cell viability on nitrite-modified extracellular matrix (ECM); conditions: FIG. 8, 1 μM compound, seeded onto nitrite-modified ECM for 24 hours, p<0.05
Protocol: Human RPE cells were treated with 1 μM of compound DH421 or DH381-2 and then seeded onto nitrite-modified ECM and untreated (normal) ECM for 24 hours. Protective effects of compound DH421 or DH381-2 on RPE cells seeded onto nitrite-modified ECM. *p<0.05.

Human RPE cells [8] = test: Mitochondrial function after TBHP (oxygen consumption rate, Seahorse XF analyzer); conditions: FIGS. 9A-9B, 1 μM compound preincubated 18 hours, then 300 μM TBHP 24 hours; for ATP production compared to TBHP-treated group: p<0.001
Protocol: Human RPE cells were preincubated with 1 μM of compound DH381-2 and DH421 for 18 hours and then treated with 300 μM tert-butyl hydroperoxide (TBHP) for 24 hours. Oxygen consumption rate (OCR) was determined by Seahorse XF analyzer to measure mitochondrial function.

[9] = FIG. 1, 0.9 μM compound preincubated 24 hours, then 300 μM TBHP 24 hours

| SMILES | cytotoxicity level (Human RPE cells [1]) | protection from oxidative stress-induced cell death (Human RPE cells [2]) | protection from blue light damage (Human ARPE-19 cells [3]) | cell viability on nitrite-modified ECM (Human ARPE-19 cells [4]) | cell viability after exposure to TBHP (Human ARPE-19 cells [5]; [9]) | effect on cell growth suppression (Human ARPE-19 cells [5]; FIG. 2, 0.9 μM compound) | cell viability after exposure to TBHP (Human ARPE-19 cells [5]; FIG. 2, 0.9 μM compound preincubated 24 hours, then 250 μM TBHP 24 hours) | protection from oxidative stress-induced cell death (Human ARPE-19 cells [5]; then 300 μM TBHP 24 hours) | protection from blue light damage (Human RPE cells [6]) | cell viability on nitrite-modified ECM (Human RPE cells [7]) | mitochondrial function (oxygen consumption rate) after oxidative stress (Human RPE cells [8]) | ATP production compared to TBHP-treated group (Human RPE cells [8]) |
| --- | --- | --- | --- | --- | --- | --- | --- | --- | --- | --- | --- | --- |
| CCc1cccc(C)c1Nc1c(-c2cc(Br)ccc2O)nc2ccccn12 [DH421, 4-bromo-2-(3-((2-ethyl-6-methylphenyl)amino)imidazo[1,2-a]pyridin-2-yl)phenol] | not affected | protected | protected | enhanced | significantly increased cell viability | no effect on cell growth suppression | significantly increased cell viability | protected | protected | enhanced | improved mitochondrial function | increased ATP production |
| Oc1ccc(Br)cc1-c1nc2ncccn2c1Nc1ccccn1 [DH381-2, 4-bromo-2-(3-(pyridin-2-ylamino)imidazo[1,2-a]pyrimidin-2-yl)phenol] | not affected | protected | protected | enhanced | significantly increased cell viability |  |  | protected | protected | enhanced | improved mitochondrial function | increased ATP production |
